Positions of bridges follow the written chain, without caps; N, C: chain ends. Non-standard residues stand in square brackets, D forms with d. Residues, ends and D or L forms follow the SMILES beside them. Hyp = O=C(O)[C@@H]1C[C@@H](O)CN1; R8 = C=CCCCCCC[C@@](C)(N)C(=O)O; hLeu = CC(C)CC[C@H](N)C(=O)O; S5 = C=CCCC[C@](C)(N)C(=O)O; PEG3 = NCCOCCOCCOCCC(=O)O; PEG2 = NCCOCCOCCC(=O)O; AEA = NCCOCC(=O)O

Series [1] in a line: α-Helicity by CD spectroscopy. As to conditions: PB pH 7.2, 10-50 µM peptide, 20°C, calculated from [θ]222. The format is physicochemical. Here is the method: Peptides were dissolved in PB (pH = 7.2) to concentrations ranging from 10 to 50 µM. CD spectra were obtained on a Jasco J-715 spectropolarimeter at 20°C. The spectra were collected using a 0.1 cm path length quartz cuvette with the following measurement parameters: wavelength, 185-255 nm; step resolution, 0.1 nm; speed, 20 nm/min; accumulations, 6; bandwidth, 1 nm. The helical content of each peptide was calculated as reported previously.

A short description of another series: circular dichroism. The following applies: phosphate buffer (PB); pH 7.2; 20 °C; 10-50 uM. (Circular dichroism is the unequal absorption of left and right circularly polarised light.)
Another series deals with HCT116 p53^+/+ cells. Description: Cell viability assay (CCK-8). As to conditions: 72 h. The class given is cell-based, human. The protocol: (§1) The human colon carcinoma cell line HCT116 p53^+/+ was obtained from the Cell Bank of the Chinese Academy of Sciences (Shanghai, China). HCT116 p53^-/- cells were generously provided by Prof. Vogelstein of Johns Hopkins University. Both cell lines were cultured in McCoy's 5A medium (Gibco, USA) containing 10% FBS, 100 units/ml penicillin, and 100 μg/ml streptomycin at 37 °C in a humidified incubator containing 5% CO2. Cell viability was measured using a Cell Counting Kit-8 (CCK-8) (Dojindo, Kumamoto, Japan) according to the manufacturer's instructions. In brief, the cells (5 × 10^3 cells/well in […] medium) were cultured for 24 h in 96-well microplates in a humidified 5% CO2 incubator at 37 °C and then treated with varying concentrations of compounds or 0.1% DMSO vehicle control.

The subject of the next series is HCT116 p53^-/- cells. The series is described as follows: Cell viability assay (CCK-8). The format is cell-based, human. As to conditions: 72 h. Here is the method: as §1

For the compound `CC(=O)N[C@H](C(=O)N[C@@H](CO)C(=O)N[C@@H](Cc1ccccc1)C(=O)N[C@@H](C)C(=O)N[C@@H](CCC(=O)O)C(=O)N[C@@H](Cc1ccc(O)cc1)C(=O)N[C@@H](Cc1c[nH]c2ccccc12)C(=O)N[C@@H](C)C(=O)N[C@@H](CC(C)C)C(=O)N[C@@H](CC(C)C)C(=O)N[C@@H](CO)C(=O)NCCOCCOCCC(=O)N[C@@H](CC(C)C)C(=O)N[C@@H](C)C(=O)N1C[C@H](O)C[C@H]1C(=O)N[C@@H](Cc1ccc(O)cc1)C(=O)N[C@@H](CCC(C)C)C(=O)N1CCC[C@H]1C(N)=O)[C@@H](C)O` [PMI-HIF1-2], the “α-helicity (%)” value in series [1] was 17%. The compound also gave a helicity in the series “circular dichroism” of 17%.
One may read the IC50 as the point on the concentration scale where inhibition reaches its midpoint. `CC(=O)N[C@H](C(=O)N[C@@H](CO)C(=O)N[C@@H](Cc1ccccc1)C(=O)N[C@]1(C)CCCCCCC=CCCC[C@@](C)(C(=O)NCCOCCOCCOCCC(=O)N[C@@H](CC(C)C)C(=O)N[C@@H](C)C(=O)N2C[C@H](O)C[C@H]2C(=O)N[C@@H](Cc2ccc(O)cc2)C(=O)N[C@@H](CCC(C)C)C(=O)N2CCC[C@H]2C(N)=O)NC(=O)[C@H](CC(C)C)NC(=O)[C@H](CC(C)C)NC(=O)[C@H](C)NC(=O)[C@H](Cc2c[nH]c3ccccc23)NC(=O)[C@H](Cc2ccc(O)cc2)NC(=O)[C@H](CCC(=O)O)NC1=O)[C@@H](C)O` [SPMI-HIF2-3] (Ac-TSF[R8]EYWALL[S5][PEG3]LA[Hyp]Y[hLeu]P-NH2; staple 4-11): the results for the IC50 in the series with HCT116 p53^+/+ cells and with HCT116 p53^-/- cells were 15.2 µM and more than 100 µM, respectively. The “α-helicity (%)” value in series [1] is reported as 24%. This compound also displayed a helicity in the series “circular dichroism” of 24%.
`CC(=O)N[C@H](C(=O)N[C@@H](CO)C(=O)N[C@@H](Cc1ccccc1)C(=O)N[C@@H](C)C(=O)N[C@@H](CCC(=O)O)C(=O)N[C@@H](Cc1ccc(O)cc1)C(=O)N[C@@H](Cc1c[nH]c2ccccc12)C(=O)N[C@@H](C)C(=O)N[C@@H](CC(C)C)C(=O)N[C@@H](CC(C)C)C(=O)N[C@@H](CO)C(=O)NCCOCCOCCOCCC(=O)N[C@@H](CC(C)C)C(=O)N[C@@H](C)C(=O)N1C[C@H](O)C[C@H]1C(=O)N[C@@H](Cc1ccc(O)cc1)C(=O)N[C@@H](CCC(C)C)C(=O)N1CCC[C@H]1C(N)=O)[C@@H](C)O` [PMI-HIF1-3]: in series [1], the “α-helicity (%)” value is 17%. For the same compound, the helicity in the series “circular dichroism” was 17%.
For the compound `CC(=O)N[C@H](C(=O)N[C@@H](CO)C(=O)N[C@@H](Cc1ccccc1)C(=O)N[C@@]1(C)CCCC=CCCC[C@@](C)(C(=O)N[C@@H](CC(C)C)C(=O)N[C@@H](CC(C)C)C(=O)N[C@@H](CO)C(N)=O)NC(=O)[C@H](Cc2c[nH]c3ccccc23)NC(=O)[C@H](Cc2ccc(O)cc2)NC(=O)[C@H](CCC(=O)O)NC1=O)[C@@H](C)O` [SPMI1] (Ac-TSF[S5]EYW[S5]LLS-NH2; staple 4-8), the IC50 in the series on HCT116 p53^+/+ cells and in the series on HCT116 p53^-/- cells was more than 100 µM throughout. For the same compound, in series [1], the “α-helicity (%)” value is listed as 4%. Also, in “circular dichroism”, the helicity was found to be 4%.
As to `CC(=O)N[C@H](C(=O)N[C@@H](CO)C(=O)N[C@@H](Cc1ccccc1)C(=O)N[C@@]1(C)CCCC=CCCC[C@@](C)(C(=O)N[C@@H](CC(C)C)C(=O)N[C@@H](CC(C)C)C(=O)N[C@@H](CO)C(=O)NCCOCCOCCOCCC(=O)N[C@@H](CC(C)C)C(=O)N[C@@H](C)C(=O)N2C[C@H](O)C[C@H]2C(=O)N[C@@H](Cc2ccc(O)cc2)C(=O)N[C@@H](CCC(C)C)C(=O)N2CCC[C@H]2C(N)=O)NC(=O)[C@H](Cc2c[nH]c3ccccc23)NC(=O)[C@H](Cc2ccc(O)cc2)NC(=O)[C@H](CCC(=O)O)NC1=O)[C@@H](C)O` [SPMI-HIF1-3] (Ac-TSF[S5]EYW[S5]LLS[PEG3]LA[Hyp]Y[hLeu]P-NH2; staple 4-8), the IC50 with HCT116 p53^+/+ cells was 57.7 µM; with HCT116 p53^-/- cells, more than 100 µM. For the same compound, in series [1], the “α-helicity (%)” value is given as 27%. In addition, the helicity in the series “circular dichroism” worked out at 27%.
For `CC(=O)N[C@H](C(=O)N[C@@H](CO)C(=O)N[C@@H](Cc1ccccc1)C(=O)N[C@]1(C)CCCCCCC=CCCC[C@@](C)(C(=O)NCCOCCOCCC(=O)N[C@@H](CC(C)C)C(=O)N[C@@H](C)C(=O)N2C[C@H](O)C[C@H]2C(=O)N[C@@H](Cc2ccc(O)cc2)C(=O)N[C@@H](CCC(C)C)C(=O)N2CCC[C@H]2C(N)=O)NC(=O)[C@H](CC(C)C)NC(=O)[C@H](CC(C)C)NC(=O)[C@H](C)NC(=O)[C@H](Cc2c[nH]c3ccccc23)NC(=O)[C@H](Cc2ccc(O)cc2)NC(=O)[C@H](CCC(=O)O)NC1=O)[C@@H](C)O` [SPMI-HIF2-2] (Ac-TSF[R8]EYWALL[S5][PEG2]LA[Hyp]Y[hLeu]P-NH2; staple 4-11), the IC50 in the series with HCT116 p53^+/+ cells was 10.8 µM; with HCT116 p53^-/- cells, more than 100 µM. For the same compound, in series [1], the “α-helicity (%)” value is 37%. Moreover, the helicity in “circular dichroism” turned out to be 37%.
For the compound `CC(=O)N[C@H](C(=O)N[C@@H](CO)C(=O)N[C@@H](Cc1ccccc1)C(=O)N[C@@]1(C)CCCC=CCCC[C@@](C)(C(=O)N[C@@H](CC(C)C)C(=O)N[C@@H](CC(C)C)C(=O)N[C@@H](CO)C(=O)NCCOCCOCCC(=O)N[C@@H](CC(C)C)C(=O)N[C@@H](C)C(=O)N2C[C@H](O)C[C@H]2C(=O)N[C@@H](Cc2ccc(O)cc2)C(=O)N[C@@H](CCC(C)C)C(=O)N2CCC[C@H]2C(N)=O)NC(=O)[C@H](Cc2c[nH]c3ccccc23)NC(=O)[C@H](Cc2ccc(O)cc2)NC(=O)[C@H](CCC(=O)O)NC1=O)[C@@H](C)O` [SPMI-HIF1-2] (Ac-TSF[S5]EYW[S5]LLS[PEG2]LA[Hyp]Y[hLeu]P-NH2; staple 4-8), the IC50 is 85.1 µM in the series with HCT116 p53^+/+ cells and more than 100 µM in the series on HCT116 p53^-/- cells. Moreover, in series [1], the “α-helicity (%)” value is on record as 2%. For the same compound, in “circular dichroism”, the helicity amounted to 2%.
As for `CC(=O)N[C@H](C(=O)N[C@@H](CO)C(=O)N[C@@H](Cc1ccccc1)C(=O)N[C@@]1(C)CCCC=CCCC[C@@](C)(C(=O)N[C@@H](CC(C)C)C(=O)N[C@@H](CC(C)C)C(=O)N[C@@H](CO)C(=O)NCCOCC(=O)N[C@@H](CC(C)C)C(=O)N[C@@H](C)C(=O)N2C[C@H](O)C[C@H]2C(=O)N[C@@H](Cc2ccc(O)cc2)C(=O)N[C@@H](CCC(C)C)C(=O)N2CCC[C@H]2C(N)=O)NC(=O)[C@H](Cc2c[nH]c3ccccc23)NC(=O)[C@H](Cc2ccc(O)cc2)NC(=O)[C@H](CCC(=O)O)NC1=O)[C@@H](C)O` [SPMI-HIF1-1] (Ac-TSF[S5]EYW[S5]LLS[AEA]LA[Hyp]Y[hLeu]P-NH2; staple 4-8), the IC50 in the series with HCT116 p53^+/+ cells is 82.1 µM; in the series on HCT116 p53^-/- cells, more than 100 µM. Moreover, in series [1], the “α-helicity (%)” value is on record as 3%. In “circular dichroism”, this compound gave a helicity of 3%.
